Source: US20070191490A1, “Withacnistin compounds for treatment of cancer” (priority 2006, published 2007)

Key:
phospho-Src = phospho-Src levels in A549 cells (Western blotting); assay type: cell-based, human; settings: 10 μM, 4 hours
Experimental: (§1) Western blotting. Treated cell samples were lysed in 30 mM HEPES, pH 7.5, 10 mM NaCl, 5 mM MgCl2, 25 mM NaF, 1 mM EGTA, 1% Triton X-100, 10% glycerol, 2 mM sodium orthovanadate, 10 μg/ml aprotinin, 10μ/ml soybean trypsin inhibitor, 25 μg/ml leupeptin, 2 mM PMSF, and 6.4 mg/ml p-nitrophenylphosphate. Phospho-STAT3, phospho-AKT, phospho-Src, and phospho-p42/p44 MAPK antibodies were obtained from Cell Signaling Technologies (Cambridge, Mass., USA). Phospho-JNK and whole STAT3 antibodies were purchased from Santa Cruz Biotechnology (Santa Cruz, Calif., USA); phospho-JAK2 antibody came from Upstate Biotechnology (Lake Placid, N.Y., USA). Membranes were blocked in either 5% milk in phosphate-buffered saline (PBS), pH 7.4, containing 0.1% Tween-20 (PBS-T) or 1% BSA in tris-buffered saline (TBS), pH 7.5, containing 0.1% Tween-20 (TBS-T). Phospho-specific antibodies (excepting P-MAPK and P-JNK) were incubated in 1% BSA in TBS-T while all other antibodies were diluted in 5% milk in PBS-T for either 2 h at room temperature or overnight at 4° C. HRP-conjugated secondary antibodies (Jackson ImmunoResearch, West Grove, Pa., USA) were diluted in 5% milk in either PBS-T or TBS-T at 1:1000 dilution for 1 h at room temperature. […]
(§2) It was next determined whether withacnistin and the Cuc analogs are selective for the JAK2/STAT3 pathway over other signal transduction pathways. […]

phospho-JNK = phospho-JNK levels in A549 cells (Western blotting); assay type: cell-based, human; settings: 10 μM, 4 hours
Experimental: as §1, §2

phospho-Akt = phospho-Akt levels in A549 cells (Western blotting); assay type: cell-based, human; settings: 10 μM, 4 hours
Experimental: as §1, §2

v-Src/3T3 cells = experiment: TUNEL apoptosis assay, v-Src/3T3; assay type: cell-based, murine; settings: 10 μM withacnistin mixture, 24 hours
Experimental: In vitro cellular proliferation and TUNEL assays. Subconfluent A549, MDA-MB-435, MDA-MB-453, MDAMB-468, v-Src transformed NIH 3T3 (v-Src/3T3), H-Ras transformed NIH 3T3 (H-Ras/3T3), and vector NIH 3T3 cells were grown in the presence of 10 μM cucurbitacin A, cucurbitacin I, withacnistin mixture, or DMSO vehicle control. After 24 hours, cells were harvested by trypsinization and counted via trypan blue exclusion assay to determine cellular viability. In all, 75,000-150,000 cells (depending on cell line) were then spun onto glass slides using a Cytospin 3 centrifuge (Thermo Shandon Inc., Pittsburgh, Pa., USA). After fixing cells to the slides with 4% paraformaldehyde in PBS, pH 7.5, for 1 h at room temperature, cells were labeled for apoptotic DNA strand breaks by TUNEL reaction using an in situ cell death detection kit (Roche Applied Science, Indianapolis, Ind., USA) according to the manufacturer's instructions, then mounted in Vectashield mounting medium (Vector Laboratories, Burlingame, Calif., USA) containing 4′,6-diamidino-2-phenylindole (DAPI) to counterstain DNA. […] TUNELpositive nuclei were counted and compared to DAPI-stained nuclei to determine the percent induction of apoptosis by the different cucurbitacin compounds. Statistical significance between control and treated tumors were evaluated by using Student's t-test. […]

Src kinase = Src kinase (Homo sapiens, UniProt P12931); experiment: Src kinase inhibition in vitro; assay type: biochemical; settings: data not shown
Excerpt: The actual biochemical targets for cucurbitacins are not known. […] Possible tyrosine kinases that could be targets are the Src family of kinases. Src kinase itself was not inhibited in vitro by Cuc I (Blaskovich, M. A. et al. Cancer Res., 2003, 63:1270-1279) and withacnistin (data not shown).

STAT3 = biological target: T1, STAT3 (Homo sapiens, UniProt P40763); experiment: Growth factor/cytokine stimulation of STAT3 tyrosine phosphorylation; assay type: cell-based
T1 construct: endogenous in cells; host or cells: U266; MDA-MB-468
Experimental: (§3) Furthermore, it is not know whether Wit suppresses constitutive or stimulated P-STAT3 levels selectively over other STAT family members such as STAT1 and STAT5. To this end, a variety of human cancer cell lines were treated with Wit and stimulated with growth factors or cytokines known to activate STAT family members as described under Methods. […] Pretreatment of U266 cells with W or WM blocked this IL-6 activation of STAT3 in a dose-dependent manner. In contrast, IL-6 activation of STAT1 in these cells was not affected by Wit pretreatment (FIG. 9B).

STAT1 = experiment: Growth factor/cytokine stimulation of STAT1 tyrosine phosphorylation; assay type: cell-based, human; settings: U266 cells, pretreatment
Experimental: as §3

SOCS3 = SOCS3 levels in cancer cell lines; assay type: cell-based, human; settings: A549 cells
Experimental: Activation of STAT3 occurs through its tyrosine phosphorylation. Inactivation of STAT3 can occur through several mechanisms including dephosphorylation by phosphotyrosine protein phosphatases as well as blocking STAT3 activation by SOCS3, which binds and prevents kinases from activating STAT3. To determine whether Wit also affects negative regulators of STAT3, its effects on SOCS3 were determined. To this end, A549 cells were first treated with Wit for various periods of time and its effects on both P-STAT3 and SOCS3 were determined. […] However, by 24 hours, Wit suppressed both P-STAT3 and total STAT3 levels (data not shown). […] It is important to note that WM had little effect on […] protein levels (FIGS. 11A and 11C).

phosphotyrosine-STAT3 = experiment: Inhibition of phosphotyrosine-STAT3 levels in tumor cell lines (Western blotting); assay type: cell-based, human; settings: A549 cells, by 24 hours; data not shown

T1 sequence (P40763 2-770 limits assumed): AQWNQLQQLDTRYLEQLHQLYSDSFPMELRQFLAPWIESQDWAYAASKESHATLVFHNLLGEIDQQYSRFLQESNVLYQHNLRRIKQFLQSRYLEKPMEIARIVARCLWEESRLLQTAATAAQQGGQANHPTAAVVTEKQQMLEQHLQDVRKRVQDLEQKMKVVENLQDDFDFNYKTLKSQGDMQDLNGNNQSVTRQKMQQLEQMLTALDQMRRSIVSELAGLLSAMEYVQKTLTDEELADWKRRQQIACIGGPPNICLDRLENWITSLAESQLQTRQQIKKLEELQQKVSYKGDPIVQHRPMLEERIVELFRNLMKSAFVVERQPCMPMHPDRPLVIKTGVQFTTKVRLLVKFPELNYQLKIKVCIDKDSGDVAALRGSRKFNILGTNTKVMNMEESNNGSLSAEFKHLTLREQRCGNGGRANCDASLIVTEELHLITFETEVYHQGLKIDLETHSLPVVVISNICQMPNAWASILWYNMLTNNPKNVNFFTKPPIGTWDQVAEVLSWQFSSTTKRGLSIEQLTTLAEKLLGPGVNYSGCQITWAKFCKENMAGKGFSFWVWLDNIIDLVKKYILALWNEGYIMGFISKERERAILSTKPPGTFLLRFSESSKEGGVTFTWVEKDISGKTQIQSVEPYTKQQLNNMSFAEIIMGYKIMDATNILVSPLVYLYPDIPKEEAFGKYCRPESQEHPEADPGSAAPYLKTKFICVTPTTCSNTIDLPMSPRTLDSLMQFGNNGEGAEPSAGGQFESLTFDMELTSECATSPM
Chain of Src kinase (P12931 whole entry): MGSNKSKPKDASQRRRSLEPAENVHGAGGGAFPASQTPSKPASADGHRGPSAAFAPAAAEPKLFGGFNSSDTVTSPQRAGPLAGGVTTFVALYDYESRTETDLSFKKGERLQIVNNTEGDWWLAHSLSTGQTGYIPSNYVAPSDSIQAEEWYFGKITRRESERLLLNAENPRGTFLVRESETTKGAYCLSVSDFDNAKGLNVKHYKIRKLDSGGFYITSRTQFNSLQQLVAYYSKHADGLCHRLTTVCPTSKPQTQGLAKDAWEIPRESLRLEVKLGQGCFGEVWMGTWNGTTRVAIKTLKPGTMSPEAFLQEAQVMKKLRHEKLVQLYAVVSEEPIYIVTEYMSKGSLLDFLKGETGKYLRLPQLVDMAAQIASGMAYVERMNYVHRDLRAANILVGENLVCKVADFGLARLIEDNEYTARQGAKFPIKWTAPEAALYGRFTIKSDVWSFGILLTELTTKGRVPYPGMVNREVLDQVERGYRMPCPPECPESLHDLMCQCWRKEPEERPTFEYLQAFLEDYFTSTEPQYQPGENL

SMILES	phosphotyrosine levels of Src (phospho-Src)	phosphotyrosine levels of JNK1 (phospho-JNK)	phosphotyrosine levels of Akt (phospho-Akt)	apoptosis (TUNEL-positive cells) (v-Src/3T3 cells) [%]	fold increase of apoptosis over control (v-Src/3T3 cells) [fold]	inhibition of Src kinase in vitro (Src kinase)	EGF activation of STAT3 (STAT3; MDA-MB-468 cells)	IL-6 activation of STAT3 (tyrosine phosphorylation) (STAT3; U266 cells, pretreatment, dose-dependent)	PDGF-stimulated tyrosine phosphorylation of STAT3 (STAT3; pretreatment (FIG. 9D))	IL-6 activation of STAT1 (STAT1)	levels of SOCS3 (SOCS3)	onset of SOCS3 induction (SOCS3)	P-STAT3 levels (phosphotyrosine-STAT3)
CC(=O)OC(C)(C)/C=C/C(=O)[C@](C)(O)[C@H]1[C@H](O)C[C@@]2(C)[C@@H]3CC=C4[C@@H](C[C@H](O)C(=O)C4(C)C)[C@]3(CO)C(=O)C[C@]12C [Cuc A, cucurbitacin A]	little inhibitory activity	little inhibitory activity	little inhibitory activity	–	–	–	–	–	–	–	–	–	–
CC(=O)OC[C@]12CC[C@H]3[C@@H](C[C@H]4O[C@]45[C@@H](O)C=CC(=O)[C@]35C)[C@@H]1CC[C@@H]2[C@H](C)[C@H]1CC(C)=C(C)C(=O)O1 [withacnistin]	–	–	–	39.2±7.3	50.2	not inhibited	inhibited	blocked	inhibited	not affected	induced	detectable only after two hours	suppressed
